Assay results taken from US20150250166A1, “NOOTKATONE AS AN INSECTICIDE AND INSECT REPELLENT” (ALLYLIX, INC., priority 2012, published 2015).

What was measured:
Type in all cases: in vivo
[1] = tested on: adult bed bugs (Cimex lectularius); assay: Direct spray knockdown of adult bed bugs; details: for bed bug knockdown activity, in words: early time points; for bed bugs exhibiting knockdown, average count of 5 trials (of 10): 10% nootkatone, 0.1% BHT in isopropanol
Method: (§1) A direct spray formulation, containing 10% nootkatone (from Bedoukian Research, Inc., Product No. 800; Danbury, Conn.), 0.1% butylated hydroxytoluene (BHT) in isopropanol, stored at ambient temperature and humidity, was tested for efficacy for knockdown and mortality among adult bed bugs (Cimex lectularius). Adult bed bugs (ICR, Baltimore, Md.) used in this study were blood fed within 7 days of testing. The bed bugs were anesthetized with CO2 and five groups of ten bed bugs were transferred into 9 dram vials at least 2 hours prior to testing. Just prior to treatment, the bed bugs were transferred to 16 oz. paper solo cups with cloth glued to the bottom on the inside of the cup and a screened lid. Each replicate was then sprayed manually, using a 2-3 oz. pump sprayer, with 1 gram±0.1 grams of the 10% nootkatone formulation. Each replicate was sprayed separately from a vertical distance of 6 inches above the bed bugs. The spray bottle was weighed before and after treating each replicate to confirm the weight of the test sample dispensed. All spraying took place in a vented, stainless steel Peet Grady chamber (6×6×6 ft). […] Knockdown was defined as the inability of a bed bug to right itself when placed on its back. After the five minute time point, the bed bugs were transferred to recovery containers that hold 16 oz. paper solo cups equipped with screened lids. A further knockdown study took place at 15 minutes post treatment. Serving as control samples, five replicates of 10 adult bed bugs were treated with isopropyl alcohol alone and five replicates of 10 adult bed bugs were treated with water, following the protocol outlined above.
(§2) A direct spray formulation, containing 5% nootkatone (from Bedoukian Research, Inc., Product No. 800; Danbury, Conn.), 0.1% butylated hydroxytoluene (BHT) in acetone, stored at ambient temperature and humidity, was tested for efficacy for knockdown and mortality among adult bed bugs (Cimex lectularius) using the same procedure as described in Example 1 above. Five replicates of ten bed bugs were sprayed with 1.0 g±20% of a 5% nootkatone in acetone solution stabilized with 0.1% BHT. An additional five replicates were treated with 1.0 g±20% of tap water to serve as a control.

[2] = tested on: adult bed bugs (Cimex lectularius); assay: Direct spray mortality of adult bed bugs; details: for bed bug mortality, in words: within the 15 minute knockdown study; for Alive, Treatment (bed bug count, of 50) / Dead, Treatment (bed bug count, of 50) / Moribund, Treatment (bed bug count, of 50): 5% nootkatone, 0.1% BHT in acetone
Method: as §1
After the knockdown counts were complete, the bed bugs were maintained in treatment chambers, in the laboratory at ambient light, temperature, and humidity conditions. Mortality counts were made at 24 and 48 hours post treatment. […] Table 4 below provides the average mortality data for the five replicates of bed bugs treated with water, isopropanol alone, or with 10% nootkatone in isopropanol at 24 and 48 hours.
as §2
After the knockdown counts were complete, the bed bugs were maintained in treatment chambers, in the laboratory at ambient light, temperature, and humidity conditions. Mortality counts were made at 1, 2, 3, 4 and 5 days post treatment. […] Table 5 below provides the mortality data for the replicates of bed bugs treated with water (control) or with 5% nootkatone in acetone.

[3] = tested on: adult cat fleas (Ctenocephalides felis); assay: Direct spray knockdown of adult cat fleas; details: 10% nootkatone; for cat fleas knocked down, average count of 5 trials (of 10): 0.1% BHT in isopropanol
Method: (§3) A direct spray formulation, containing 10% nootkatone, 0.1% butylated hydroxytoluene (BHT) in isopropanol, stored at ambient temperature and humidity, was tested for efficacy for knockdown and mortality among adult cat fleas (Ctenocephalides felis). Five replicates of 10 adult cat fleas (El Labs Inc (Soquel, Calif.)) were emptied from 9 dram vials into 5 gallon HDPE Payliner® pail liners lined with paper towels. Each replicate was sprayed manually with 1 gram±0.1 grams of the 10% nootkatone formulation from the rim of the pail liner. The spray bottle was weighed before and after treating each replicate to confirm the weight of the test sample dispensed. Five control replicates of 10 adult cat fleas were treated with isopropyl alcohol, following the same protocol. The study provided a single treatment of 10% nootkatone formulation or isopropyl alcohol. All spraying took place in a vented, stainless steel Peet Grady chamber (6×6×6 ft).
The average weight of isopropanol and 10% nootkatone formulation applied to the five replicates was 1.0 g and 1.07 g, respectively. […] Knockdown was defined as the failure of the cat flea to jump even following exhalation of a technician into the pail liner.

[4] = tested on: adult cat fleas (Ctenocephalides felis); details: 10% nootkatone in isopropanol, direct spray; 24 hours
Method: as §3
Following the knockdown studies, the payliners containing cat fleas were kept at ambient temperature and humidity in the laboratory. Mortality of cat fleas following isopropanol (control) and 10% nootkatone treatments was then recorded 24 hours after solution administration. Dead fleas were confirmed by probing the fleas or exhaling into the payliner to ensure lack of movement. […] Cat fleas that were able to jump were recorded as being alive. The number of moribund and dead fleas per replicate were added together for a total mortality count and divided by the number of fleas tested to derive percent mortality.

[5] = time 1 (head: Minutes; text: days post treatment)
[6] = time 2 (head: Minutes; text: days post treatment)
[7] = time 3 (head: Minutes; text: days post treatment)
[8] = time 4 (head: Minutes; text: days post treatment)
[9] = time 5 (head: Minutes; text: days post treatment)
[10] = 10% nootkatone in isopropanol, 24 hr post treatment
[11] = 10% nootkatone in isopropanol, 48 hr post treatment

C=C(C)[C@@H]1CCC2=CC(=O)C[C@@H](C)[C@]2(C)C1 [nootkatone, 4,4a,5,6,7,8-hexahydro-6-isopropenyl-4,4a-dimethyl-2(3H)-naphtalenone]
bed bug knockdown compared with control, in words ([1]; 5% nootkatone in acetone, 15 minutes): no greater effect on bed bug knockdown than that observed for the control
bed bug knockdown activity, in words ([1]; 5% nootkatone in acetone): some knockdown activity
bed bug knockdown compared with isopropanol alone, in words ([1]; 10% nootkatone in isopropanol, 15 minutes): no greater effect on bed bug knockdown than that observed for isopropanol alone
bed bug knockdown activity, in words ([1]; 10% nootkatone in isopropanol): some knockdown activity
bed bugs exhibiting knockdown, average count of 5 trials (of 10) ([1]; 0.5 min post treatment): 1.6
bed bugs exhibiting knockdown, average count of 5 trials (of 10) ([1]; 1 min post treatment): 2.6
bed bugs exhibiting knockdown, average count of 5 trials (of 10) ([1]; 2 min post treatment): 4.6
bed bugs exhibiting knockdown, average count of 5 trials (of 10) ([1]; 3 min post treatment): 5
bed bugs exhibiting knockdown, average count of 5 trials (of 10) ([1]; 4 min post treatment): 4.6
bed bugs exhibiting knockdown, average count of 5 trials (of 10) ([1]; 5 min post treatment): 4.8
bed bugs exhibiting knockdown, average count of 5 trials (of 10) ([1]; 15 min post treatment): 4.4
bed bug mortality compared with control, in words ([2]; 5% nootkatone in acetone, 5 days): did not kill bed bugs after 5 days above mortality levels observed for the control
bed bug mortality, in words ([2]; 5% nootkatone in acetone): No mortality was observed
Alive, Treatment (bed bug count, of 50) [2, 5]: 50
Dead, Treatment (bed bug count, of 50) [2, 5]: 0
Moribund, Treatment (bed bug count, of 50) [2, 5]: 0
Alive, Treatment (bed bug count, of 50) [2, 6]: 49
Dead, Treatment (bed bug count, of 50) [2, 6]: 1
Moribund, Treatment (bed bug count, of 50) [2, 6]: 0
Alive, Treatment (bed bug count, of 50) [2, 7]: 48
Dead, Treatment (bed bug count, of 50) [2, 7]: 1
Moribund, Treatment (bed bug count, of 50) [2, 7]: 1
Alive, Treatment (bed bug count, of 50) [2, 8]: 45
Dead, Treatment (bed bug count, of 50) [2, 8]: 2
Moribund, Treatment (bed bug count, of 50) [2, 8]: 3
Alive, Treatment (bed bug count, of 50) [2, 9]: 42
Dead, Treatment (bed bug count, of 50) [2, 9]: 5
Moribund, Treatment (bed bug count, of 50) [2, 9]: 3
bed bug mortality compared with isopropanol alone, in words ([2]; 10% nootkatone in isopropanol, 24 or 48 hours): did not kill bed bugs after 24 or 48 hours above mortality levels observed for isopropanol alone
Alive, average bed bug count of 5 trials (of 10) [2, 10]: 6.4
Dead, average bed bug count of 5 trials (of 10) [2, 10]: 3.6
Moribund, average bed bug count of 5 trials (of 10) [2, 10]: 0
Alive, average bed bug count of 5 trials (of 10) [2, 11]: 5.2
Dead, average bed bug count of 5 trials (of 10) [2, 11]: 4.8
Moribund, average bed bug count of 5 trials (of 10) [2, 11]: 0
bed bug mortality, in words ([2]; 10% nootkatone in isopropanol): No mortality was observed
cat flea knockdown efficacy, in words [3]: not effective in knocking down cat fleas
cat fleas knocked down, average count of 5 trials (of 10) ([3]; 0.5 min): 0.2
cat fleas knocked down, average count of 5 trials (of 10) ([3]; 1 min): 0.2
cat fleas knocked down, average count of 5 trials (of 10) ([3]; 2 min): 0.4
cat fleas knocked down, average count of 5 trials (of 10) ([3]; 3 min): 0
cat fleas knocked down, average count of 5 trials (of 10) ([3]; 4 min): 0.2
cat fleas knocked down, average count of 5 trials (of 10) ([3]; 5 min): 0.4
cat fleas knocked down, average count of 5 trials (of 10) ([3]; 15 min): 0
fleas knocked down, in words ([3]; 15 minutes): no fleas were knocked down
fleas knocked down ([3]; within the first 5 minutes): no more than 4%
Alive, average cat flea count of 5 trials (of 10) [4]: 0
Dead, average cat flea count of 5 trials (of 10) [4]: 9.6
Moribund, average cat flea count of 5 trials (of 10) [4]: 0.4
Mortality (moribund plus dead) of cat fleas [4]: 100%
